The source of these data is patent publication US12187716B2, “TYK2 kinase inhibitors” (SAREUM LIMITED, priority 2018, dated 2025).

Data set [1] concerns the target JAK3 (Homo sapiens, UniProt P52333). Put plainly: JAK3 kinase inhibition assay (33P-ATP filter binding, Reaction Biology).
Data set [2] concerns the target T1, CYP2D6 (Homo sapiens, UniProt P10635).
T1 construct: from tissue; host or cells: pooled human liver microsomes
The experiment in a line: Cytochrome P450 inhibition assay, CYP2D6. It counts as in vitro ADME. As to conditions: pooled human liver microsomes, probe Dextromethorphan. On the procedure:
(§1) The susceptibility of Compounds (2) and (3) to potential drug-drug interactions was tested by assaying their abilities to inhibit various cytochrome P450 isoforms. Prior art Compound B (see Example 3 above) was also tested as a comparative example. Test compounds, prepared and serially diluted in DMSO, were incubated at six concentrations (1% DMSO final) with pooled human liver microsomes in the presence of probe substrate for each isoform, and their effects on the metabolism of probe substrates determined. Incubations (in 96-well plates) were carried out at 37° C. in 0.1 M Tris buffer, pH 7.4, with reactions initiated by the addition of cofactor, NADPH (1 mM final concentration). At the specified times, reactions were terminated with acetonitrile containing an analytical internal standard, samples were centrifuged and the supernatant fractions were analysed for probe substrate metabolites by mass spectrometry (LC-MS/MS). The instrument responses were normalised to internal standard and compared to the appropriate solvent controls to determine the amount of metabolite formed from the probe substrates relative to these “uninhibited” controls. […] [table]
For orientation: Liver microsomes are vesicles of endoplasmic reticulum, rich in cytochrome P450 enzymes.

For data set [3], the target named is T2, CYP2C19 (Homo sapiens, UniProt P33261).
T2 construct: from tissue; host or cells: pooled human liver microsomes
T2 sequence (P33261 whole entry): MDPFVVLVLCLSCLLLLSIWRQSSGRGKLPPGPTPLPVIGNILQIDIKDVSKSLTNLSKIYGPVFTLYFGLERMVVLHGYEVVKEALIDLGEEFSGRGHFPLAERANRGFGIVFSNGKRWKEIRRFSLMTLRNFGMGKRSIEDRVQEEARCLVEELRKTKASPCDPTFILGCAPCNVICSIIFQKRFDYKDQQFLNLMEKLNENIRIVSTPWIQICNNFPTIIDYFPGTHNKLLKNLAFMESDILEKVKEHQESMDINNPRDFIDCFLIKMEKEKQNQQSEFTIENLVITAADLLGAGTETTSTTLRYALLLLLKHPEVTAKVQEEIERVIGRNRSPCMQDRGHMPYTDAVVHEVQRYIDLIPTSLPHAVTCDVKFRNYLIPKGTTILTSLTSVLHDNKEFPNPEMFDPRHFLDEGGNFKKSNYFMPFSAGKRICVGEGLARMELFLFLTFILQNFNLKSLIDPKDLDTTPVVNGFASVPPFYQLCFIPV
Put plainly: Cytochrome P450 inhibition assay, CYP2C19. The note with it: pooled human liver microsomes, probe S-(+)-Mephenytoin. The data set is classed as in vitro ADME. Here is the method:
as §1

The target in data set [4] is TYK2 (Homo sapiens, UniProt P29597). Put plainly: TYK2 kinase inhibition assay (33P-ATP filter binding, Reaction Biology).
Chain of TYK2 (P29597 833-1187): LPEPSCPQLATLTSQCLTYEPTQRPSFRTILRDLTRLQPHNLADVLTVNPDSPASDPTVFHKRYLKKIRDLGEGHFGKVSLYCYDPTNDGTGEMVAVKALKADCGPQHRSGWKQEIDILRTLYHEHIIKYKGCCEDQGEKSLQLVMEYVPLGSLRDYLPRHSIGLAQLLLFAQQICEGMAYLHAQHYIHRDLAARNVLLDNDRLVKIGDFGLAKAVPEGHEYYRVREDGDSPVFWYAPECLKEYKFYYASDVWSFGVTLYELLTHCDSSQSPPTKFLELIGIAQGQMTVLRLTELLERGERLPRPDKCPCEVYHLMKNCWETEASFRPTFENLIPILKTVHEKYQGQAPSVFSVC
Data set [5] has as its target T3, CYP1A2 (Homo sapiens, UniProt P05177).
T3 sequence (P05177 1-516): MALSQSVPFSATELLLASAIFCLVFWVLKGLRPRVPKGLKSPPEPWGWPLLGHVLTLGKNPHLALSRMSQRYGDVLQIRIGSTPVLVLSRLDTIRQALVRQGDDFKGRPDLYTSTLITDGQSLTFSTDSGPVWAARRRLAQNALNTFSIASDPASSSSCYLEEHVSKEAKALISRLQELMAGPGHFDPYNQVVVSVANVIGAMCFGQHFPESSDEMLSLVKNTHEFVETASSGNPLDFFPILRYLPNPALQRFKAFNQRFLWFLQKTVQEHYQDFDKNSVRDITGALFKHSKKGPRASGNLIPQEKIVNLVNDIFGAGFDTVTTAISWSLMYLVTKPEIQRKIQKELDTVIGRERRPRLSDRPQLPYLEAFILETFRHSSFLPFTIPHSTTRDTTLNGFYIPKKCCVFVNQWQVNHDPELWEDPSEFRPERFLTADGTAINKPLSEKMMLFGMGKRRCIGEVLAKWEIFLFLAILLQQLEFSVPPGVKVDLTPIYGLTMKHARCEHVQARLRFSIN
Put plainly: Cytochrome P450 inhibition assay, CYP1A2. It counts as in vitro ADME. As to conditions: pooled human liver microsomes, probe Phenacetin. On the procedure: as §1

A short description of data set [6]: Hepatocyte stability assay, mouse. It counts as in vitro ADME. As to conditions: male, CD-1, pooled hepatocytes, 37° C. Here is the method: Test and control compounds were incubated with hepatocytes at 37° C. Aliquots were removed at 6 timepoints over a one hour period. Samples were centrifuged and the supernatant fractions analysed for parent compound by mass spectrometry (LC-MS/MS).
The amount of compound remaining (expressed as %) was determined from the MS response in each sample relative to that in the T=0 samples, and used to determine the half-life and intrinsic clearance of the compound.

Data set [7] has as its target JAK1 (Homo sapiens, UniProt P23458). Put plainly: JAK1 kinase inhibition assay (33P-ATP filter binding, Reaction Biology).
Data set [8] deals with IL-17F production in Th17 cells. Put plainly: IL-17F production inhibition in Th17 cells derived from human peripheral blood CD4CD45RO+ cells. It counts as cell-based. Here is the method: Fresh human Peripheral blood CD4CD45RO+ cells were purchased commercially (Generon, UK); 3 separate vials from 3 different volunteers for experimental replicates. Cells were grown in T-cell medium (Thermo Fisher) containing 10 ng/ml recombinant human IL-1B (R&D Systems), IL-23 (R&D Systems), TGF-B1 (R&D Systems) and 50 ng/ml IL-6 (R&D Systems) together with anti-CD3/CD28 magnetic Dynabeads (Thermo Fisher). These were grown for 11 days to induce expansion of Th17 cells. Prior to plating for assays cells were grown overnight in T-cell medium supplemented with human serum (1%) overnight. Media was removed and replaced with unsupplemented RPMI for 4 h prior to assay.
To measure IL-17F levels, 200,000 cells were plated into a 96 well plate and preincubated with compounds for 30 minutes followed by stimulation with recombinant IL-23 at 6.25 ng/ml and recombinant human IL-1B at 0.1 ng/ml for 48 h. Supernatants were removed and IL-17F levels measured using a commercially available ELISA kit (Thermo Fisher; BMS2037-2).
ELISAs were carried out according to manufacturers instructions and absorbance read using a microplate reader (Thermo Fisher; Varioskan). Data was normalised to the response in untreated samples using the formula: % of control=((Stimulated sample Conc.−unstimulated sample Conc.)×100)/(Control stimulated Conc.−control unstimulated Conc.)
Graphpad Prism 8.1.0 was used to calculate I050 values using a Nonlinear 4 parameter logistic regression model (4PL).

The target in data set [9] is T4, CYP2B6 (Homo sapiens, UniProt P20813).
T4 construct: from tissue; host or cells: pooled human liver microsomes
T4 sequence (P20813 1-491): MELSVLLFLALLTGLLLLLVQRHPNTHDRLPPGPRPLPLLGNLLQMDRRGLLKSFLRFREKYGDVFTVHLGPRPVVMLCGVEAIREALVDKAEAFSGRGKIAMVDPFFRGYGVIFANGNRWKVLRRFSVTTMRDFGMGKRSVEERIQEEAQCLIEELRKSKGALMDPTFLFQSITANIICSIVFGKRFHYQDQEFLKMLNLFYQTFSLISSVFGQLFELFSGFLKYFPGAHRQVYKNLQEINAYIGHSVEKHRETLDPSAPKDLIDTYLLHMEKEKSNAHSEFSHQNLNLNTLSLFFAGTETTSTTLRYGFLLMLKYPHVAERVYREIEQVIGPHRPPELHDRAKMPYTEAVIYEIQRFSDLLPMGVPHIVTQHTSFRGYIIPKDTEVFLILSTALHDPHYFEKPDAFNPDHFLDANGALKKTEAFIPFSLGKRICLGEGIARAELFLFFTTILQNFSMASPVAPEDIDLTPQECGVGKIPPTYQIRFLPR
The experiment in a line: Cytochrome P450 inhibition assay, CYP2B6. It counts as in vitro ADME. The note with it: pooled human liver microsomes, probe Bupropion. On the procedure:
as §1

Data set [10] deals with T5, CYP2C9 (Homo sapiens, UniProt P11712).
T5 construct: from tissue; host or cells: pooled human liver microsomes
T5 sequence (P11712 whole entry): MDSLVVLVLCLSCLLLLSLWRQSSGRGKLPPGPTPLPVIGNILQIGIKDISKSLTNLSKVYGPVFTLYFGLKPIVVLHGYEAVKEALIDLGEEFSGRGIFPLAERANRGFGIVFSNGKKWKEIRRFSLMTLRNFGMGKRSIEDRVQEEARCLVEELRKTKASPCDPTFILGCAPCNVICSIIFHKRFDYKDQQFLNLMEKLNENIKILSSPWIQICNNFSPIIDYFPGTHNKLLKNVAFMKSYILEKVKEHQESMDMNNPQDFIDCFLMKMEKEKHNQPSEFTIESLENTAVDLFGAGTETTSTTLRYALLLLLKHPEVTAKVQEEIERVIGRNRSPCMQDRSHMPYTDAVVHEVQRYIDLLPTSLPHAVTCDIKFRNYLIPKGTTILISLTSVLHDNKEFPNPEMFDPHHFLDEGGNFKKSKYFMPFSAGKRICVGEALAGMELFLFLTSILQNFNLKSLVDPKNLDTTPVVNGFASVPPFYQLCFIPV
The experiment in a line: Cytochrome P450 inhibition assay, CYP2C9. The data set is classed as in vitro ADME. As to conditions: pooled human liver microsomes, probe Diclofenac. Here is the method: as §1

Setting [11] is: IL-23 6.25 ng/ml + IL-1B 0.1 ng/ml, 48 h, Donor 1, read-out: IL17-F Production Inhibition IC50, Donor 1.
Setting [12] is: IL-23 6.25 ng/ml + IL-1B 0.1 ng/ml, 48 h, Donor 2, read-out: IL17-F Production Inhibition IC50, Donor 2.
Setting [13] is: IL-23 6.25 ng/ml + IL-1B 0.1 ng/ml, 48 h, Donor 3, read-out: IL17-F Production Inhibition IC50, Donor 3.
Setting [14] is: average of 3 donors, read-out: IL17-F Production Inhibition IC50, Average.

Each structure is given as a SMILES string. Read-outs that look alike come from different tables or passages of the source. A value given as a limit tells only on which side of the number the result lay.

Chain of JAK1 (P23458 866-1154): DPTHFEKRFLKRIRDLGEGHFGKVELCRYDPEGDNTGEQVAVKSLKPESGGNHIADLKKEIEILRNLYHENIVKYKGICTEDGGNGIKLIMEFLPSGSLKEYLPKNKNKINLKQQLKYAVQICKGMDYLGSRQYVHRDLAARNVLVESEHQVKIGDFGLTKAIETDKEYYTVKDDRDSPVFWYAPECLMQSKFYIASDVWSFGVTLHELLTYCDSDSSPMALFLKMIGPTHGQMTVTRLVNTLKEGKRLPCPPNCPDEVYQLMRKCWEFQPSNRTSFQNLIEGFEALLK
T1 sequence (P10635 whole entry): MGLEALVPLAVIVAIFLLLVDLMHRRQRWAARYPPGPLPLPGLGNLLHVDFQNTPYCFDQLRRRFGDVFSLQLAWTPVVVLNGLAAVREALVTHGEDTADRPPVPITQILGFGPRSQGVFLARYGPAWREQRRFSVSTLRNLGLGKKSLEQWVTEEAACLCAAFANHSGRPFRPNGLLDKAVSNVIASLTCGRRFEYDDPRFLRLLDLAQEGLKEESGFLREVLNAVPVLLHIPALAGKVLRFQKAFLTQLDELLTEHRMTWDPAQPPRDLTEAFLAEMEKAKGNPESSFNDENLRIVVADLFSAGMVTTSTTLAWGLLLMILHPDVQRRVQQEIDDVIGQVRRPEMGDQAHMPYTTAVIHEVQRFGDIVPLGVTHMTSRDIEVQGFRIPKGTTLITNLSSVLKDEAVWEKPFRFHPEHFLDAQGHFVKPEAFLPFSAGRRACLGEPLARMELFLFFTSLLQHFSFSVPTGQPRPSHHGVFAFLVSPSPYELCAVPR
Chain of JAK3 (P52333 781-1124): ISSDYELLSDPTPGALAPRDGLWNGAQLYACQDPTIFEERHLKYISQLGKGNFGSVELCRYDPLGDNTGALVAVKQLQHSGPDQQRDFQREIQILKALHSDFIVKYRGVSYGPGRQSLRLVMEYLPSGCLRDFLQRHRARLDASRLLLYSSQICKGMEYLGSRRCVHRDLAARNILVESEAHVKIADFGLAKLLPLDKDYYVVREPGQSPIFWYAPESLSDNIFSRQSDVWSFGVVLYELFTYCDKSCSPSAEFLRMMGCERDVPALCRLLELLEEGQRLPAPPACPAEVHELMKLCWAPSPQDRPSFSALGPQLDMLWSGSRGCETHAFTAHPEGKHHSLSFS

The IC50 is the concentration at which inhibition is half-maximal. One may read the hepatocyte CLint as the rate of metabolic loss divided by the concentration. A high value points to rapid turnover. Turning to `NC(=O)c1nc(-c2c(Cl)cccc2Cl)oc1Nc1ccc(C(=O)N2CCOCC2)cc1` [Comparative Compound B, 2-(2,6-dichloro-phenyl)-5-[4-(morpholine-4-carbonyl)-phenylamino]-oxazole-4-carboxylic acid amide, reference compound], the IC50 in [1] was 271 nM; in data set [2], greater than 30000 nM; in data set [3], greater than 30000 nM; in data set [4], 5.1 nM; in [5], greater than 30000 nM; in [7], 26 nM. Further, the IC50 in data set [8] (setting [11]) is 243 nM; in data set [8] (setting [12]) it was 217 nM; in [8] (setting [13]) it was 148 nM; in [8] (setting [14]) it was 203 nM; in data set [9] it was greater than 30000 nM; in [10], 4400 nM. This molecule returned a hepatocyte CLint in data set [6] of 40.5 µL/min/1e6 cells.

As to `NC(=O)c1nc(-c2c(Cl)cccc2Cl)oc1Nc1ccc(C(=O)N2CCS(=O)(=O)CC2)cc1` [Compound (2)], the IC50 in data set [1] is 212 nM; in data set [2], greater than 30000 nM; in data set [3] it was greater than 30000 nM; in data set [4] it was 1.9 nM; in [5], greater than 30000 nM; in data set [7] it was 20 nM. In addition, the half-inhibitory concentration (IC50) in data set [8] (setting [11]) was 117 nM; in data set [8] (setting [12]), 134 nM; in [8] (setting [13]) it was 64 nM; in [8] (setting [14]), 105 nM; in data set [9] it was greater than 30000 nM; in [10], 26000 nM. The molecule also gave a hepatocyte CLint in data set [6] of 16.8 µL/min/1e6 cells.

In the case of `NC(=O)c1nc(-c2c(Cl)cccc2Cl)oc1Nc1ccc(C(=O)N2CCS(=O)(=O)CC2)c(F)c1` [Compound (3)], the IC50 in data set [1] was 772 nM; in data set [2] it was greater than 30000 nM; in data set [3], 29000 nM; in [4], 4.7 nM; in data set [5], greater than 30000 nM; in data set [7], 51 nM. Besides, the IC50 in [8] (setting [11]) was 57 nM; in data set [8] (setting [12]), 548 nM; in data set [8] (setting [13]) it was 105 nM; in data set [8] (setting [14]) it was 237 nM; in [9] it was greater than 30000 nM; in [10], greater than 30000 nM. Further, the “selectivity for TYK2 compared to JAK3” value in [1] (biochemical assays) is given as roughly 164 fold. Further, the “Selectivity v TYK2: JAK3” value in [1] (ratio of JAK3 IC50 to TYK2 IC50) is listed as 164.3. In addition, the “Selectivity v TYK2: TYK2” value in data set [4] (ratio of IC50 to TYK2 IC50) was determined as 1. In data set [6], this molecule had an intrinsic metabolic clearance (hepatocyte CLint) of 28 µL/min/1e6 cells. Moreover, the half-life in data set [6] (read-out: Mouse T1/2) was 39.2 min. The “Selectivity v TYK2: JAK1” value in [7] (ratio of JAK1 IC50 to TYK2 IC50) came out at 10.9.
